Assay results: US20220233502A1, “COMPOSITION FOR PREVENTING OR TREATING ASTHMA, RHINITIS OR CONJUNCTIVITIS, COMPRISING N-ACYL AMINO ACID AS ACTIVE INGREDIENT” (STEMDR INC., priority 2019, published 2022)
Entries after “also recorded” stand apart in the source; their conditions may differ.

Tests used:
Format in all cases: in vivo, BALB/c mice
[1] = system: rhinitis-induced mice; assay: OVA-induced allergic rhinitis, nasal rubbing and sneezing; settings: 10 μL of 10 μM intranasally; for number of nasal rubbing: counted for 15 minutes on day 27, FIG. 6A; for number of sneezing: counted for 15 minutes on day 27, FIG. 6B
Protocol: (§1) Specific pathogen-free BALB/c mice (6-week-old, male) were purchased from Doul Biotech (Osan, Korea). Experiment was started when the mice were 7- to 10-week old. The mice were housed in a laminar flow cabinet and were given water and feed ad libitum.
The mice were sensitized by intraperitoneally injecting 0.02 mg of ovalbumin (OVA) and alum (1 mg) (Sigma-Aldrich) as an immunologic adjuvant twice on days 0 and 14. For 7 days from day 21, the mice were topically stimulated by injecting 10 μL of a solution of 100 μg of OVA dissolved in 20 μL of phosphate-buffered saline into both nasal cavities, once a day. After the final injection of OVA (day 27), symptom score was recorded by summing the numbers of nasal rubbing and sneezing. The symptom score was recorded for 15 minutes, and the result was compared between the groups.
Ovalbumin (OVA) of Preparation Example 3 was used as an antigen to induce allergic rhinitis. After OVA challenging from day 21 to day 26, 10 μL of each of N-acetyl-L-alanine, N-oleoyl-L-alanine, N-acetyl-L-tryptophan and N-oleoyl-L-tryptophan dissolved in phosphate-buffered saline to 10 μM was intranasally administered 12 hours later. After the final injection of OVA (day 27), symptom score was recorded by summing the numbers of nasal rubbing and sneezing. The symptom score was recorded for 15 minutes, and the result was compared between the groups.

[2] = system: IL-4; assay: Th2 cytokine IL-4 in bronchial wash (ELISA); settings: OVA asthma mice; 3.5 μmol/kg oral once a day for 7 days from day 25; FIG. 3
Protocol: as §1
(§2) The mice were sensitized by intraperitoneally injecting 0.02 mg of ovalbumin (OVA) and alum (1 mg) (Sigma-Aldrich) as an immunologic adjuvant twice on days 0 and 14. For 4 days from day 28, the mice were placed in a plastic nebulizer container of a regular size and were made to inhale OVA in the form of an aerosol by spraying 5% OVA for 30 minutes (airway challenge).
(§3) The concentration of several cytokines (TNF-α, IL-4, IL-5, IL-13) in bronchial wash was measured using an ELISA kit (R&D Systems, Minneapolis, Minn., USA).
(§4) Th2 cytokines, IL-4, IL-5 and IL-13, are known to be involved in airway inflammation, bronchial hypersensitivity and IgE antibody production mediated by eosinophils. 3.5 μmol/kg N-acetyl-L-alanine, N-oleoyl-L-alanine, N-acetyl-L-tryptophan or N-oleoyl-L-tryptophan dissolved in 10 mL of phosphate-buffered saline was orally administered once a day, for 7 days from day 25 after the induction of asthma, and the cytokines were measured.

[3] = system: asthma-induced mice (lung tissue); assay: Masson's trichrome staining of lung tissue, degree of fibrosis around the airway; settings: OVA asthma mice; oral administration for a week; vs OVA-challenged group; FIG. 2
Protocol: as §1, §2
(§5) For histological assay, tissues taken out from the lung were fixed with formalin and embedded in paraffin. The embedded tissue was sliced to 4-μm thickness and subjected to 1) hematoxylin and eosin (H&E) staining for investigation of the degree of inflammation and 2) Masson's trichrome staining for investigation of the degree of pulmonary fibrosis.
Lung tissue was stained with Masson's trichrome after oral administration of the drug for a week.

[4] = system: asthma-induced mice (lung tissue); assay: H&E staining of lung tissue, degree of inflammation; settings: OVA asthma mice; oral administration for a week; vs OVA-challenged group; FIG. 1
Protocol: as §1, §2, §5
Lung tissue was stained with H&E after oral administration of the drug for a week.

[5] = system: asthma-induced mice (inflammatory cells in the airway); assay: Inflammatory cells in bronchoalveolar lavage fluid of asthma-induced mice; settings: OVA asthma mice; for inflow of eosinophils into the airway / WBC, bronchoalveolar lavage fluid: 3.5 μmol/kg oral once a day for 7 days from day 25; for inflow of eosinophils into the airway: result in words; for WBC Differential Counting (%) EOS (eosinophils) / WBC Differential Counting (%) MAC (macrophages) / WBC Differential Counting (%) MONO (monocytes) / WBC Differential Counting (%) NEU (neutrophils) / WBC Differential Counting (k/uL) EOS (eosinophils) / WBC Differential Counting (k/uL) MAC (macrophages) / WBC Differential Counting (k/uL) MONO (monocytes) / WBC Differential Counting (k/uL) NEU (neutrophils) / WBC, bronchoalveolar lavage fluid: mean, N=8; for WBC Differential Counting (%) EOS (eosinophils) / WBC Differential Counting (%) MAC (macrophages) / WBC Differential Counting (%) MONO (monocytes) / WBC Differential Counting (%) NEU (neutrophils) / WBC Differential Counting (k/uL) EOS (eosinophils) / WBC Differential Counting (k/uL) MAC (macrophages) / WBC Differential Counting (k/uL) MONO (monocytes) / WBC Differential Counting (k/uL) NEU (neutrophils): BAL fluid, 3.5 μmol/kg oral once a day for 7 days
Protocol: Specific pathogen-free BALB/c mice (6-week-old, male) were purchased from Doul Biotech (Osan, Korea). Experiment was started when the mice were 7- to 10-week old. The mice were housed in a laminar flow cabinet and were given water and feed ad libitum. The mice were sensitized by intraperitoneally injecting 0.02 mg of ovalbumin (OVA) and alum (1 mg) (Sigma-Aldrich) as an immunologic adjuvant twice on days 0 and 14. For 4 days from day 28, the mice were placed in a plastic nebulizer container of a regular size and were made to inhale OVA in the form of an aerosol by spraying 5% OVA for 30 minutes (airway challenge). After anesthetizing the mouse and inserting a tube into the bronchus, the bronchus was washed with a buffer and cells were obtained therefrom. The cells were centrifuged, suspended at 1×10^4 cells/100 μL, and fixed by centrifuging with a cytospin. Then, the number of eosinophils, monocytes, neutrophils and macrophages were measured by staining with Diff-Quik. Neutrophils, macrophages, monocytes and eosinophils were observed as inflammatory cells in the airway. Each of N-acetyl-L-alanine, N-oleoyl-L-alanine, N-acetyl-L-tryptophan and N-oleoyl-L-tryptophan was dissolved in 10 mL of phosphate-buffered saline to 3.5 μmol/kg and was orally administered for 7 days from day 25, once a day.

[6] = system: IL-5; assay: Th2 cytokine IL-5 in bronchial wash (ELISA); settings: OVA asthma mice; 3.5 μmol/kg oral once a day for 7 days from day 25; FIG. 4
Protocol: as §1, §2, §3, §4

[7] = system: IL-13; assay: Th2 cytokine IL-13 in bronchial wash (ELISA); settings: OVA asthma mice; 3.5 μmol/kg oral once a day for 7 days from day 25; FIG. 5
Protocol: as §1, §2, §3, §4

[8] = system: conjunctivitis-induced mice; assay: OVA-induced conjunctivitis, clinical grading of conjunctival edema and flare; settings: 10 μL of 100 μM intraocularly 30 minutes and 12 hours after challenge, scale 0 to 4+, FIG. 7
Protocol: as §1
The mice were sensitized by intraperitoneally injecting 0.02 mg of ovalbumin (OVA) and alum (1.5 mg) (Sigma-Aldrich) as an immunologic adjuvant twice on days 0 and 7. For 12 days from day 14, conjunctivitis was induced by injecting 10 μL of a solution of 100 μg of OVA dissolved in 20 μL of phosphate-buffered saline into each eye, once a day.
24 hours after the final injection of OVA (day 25), the clinical grading of conjunctival edema and flare (redness) was assessed using a portable slit lamp (Carl Zeiss, Oberkochen, Germany). The assessment was performed in a blinded fashion 2 hours after OVA injection. Each clinical parameter was scored on a scale of 0 to 4+(0 absent, 1+minimal, 2+mild, 3+moderate, 4+severe) as described in Merayo-Lloves, J., Calonge, M, and Foster, C. S. 1995. Experimental model of allergic conjunctivitis to ragweed in guinea pig. Curr. Eye Res. 14: 487-494. A negative control group was given no treatment.
Ovalbumin of Preparation Example 4 was used as an antigen to induce conjunctivitis. After challenging 100 μg of ovalbumin into the eye from day 15 to 26, 10 μL of each of N-acetyl-L-alanine, N-oleoyl-L-alanine, N-acetyl-L-tryptophan and N-oleoyl-L-tryptophan dissolved in phosphate-buffered saline to 100 μM was intraocularly administered 30 minutes and 12 hours later. On day 26, the clinical grading of conjunctival edema and flare (redness) was assessed using a portable slit lamp (Carl Zeiss, Oberkochen, Germany).

| Structure (SMILES) | number of nasal rubbing [1] | number of sneezing [1] | IL-4 secretion in airway [2] | fibrosis around the airway, Masson's trichrome staining of lung tissue [3] | inflammation around the airway, H&E staining of lung tissue [4] | inflow of eosinophils into the airway [5] | WBC Differential Counting (%) EOS (eosinophils) [5] [%] | WBC Differential Counting (%) MAC (macrophages) [5] [%] | WBC Differential Counting (%) MONO (monocytes) [5] [%] | WBC Differential Counting (%) NEU (neutrophils) [5] [%] | WBC Differential Counting (k/uL) EOS (eosinophils) [5] [k/uL] | WBC Differential Counting (k/uL) MAC (macrophages) [5] [k/uL] | WBC Differential Counting (k/uL) MONO (monocytes) [5] [k/uL] | WBC Differential Counting (k/uL) NEU (neutrophils) [5] [k/uL] | WBC, bronchoalveolar lavage fluid [5] | IL-5 secretion in airway [6] | IL-13 secretion in airway [7] | clinical grade of conjunctivitis (conjunctival edema and flare) [8] |
| --- | --- | --- | --- | --- | --- | --- | --- | --- | --- | --- | --- | --- | --- | --- | --- | --- | --- | --- |
| CC(=O)N[C@@H](C)C(=O)O [NAA, N-acetyl-L-alanine] | remarkably decreased | remarkably decreased | significantly inhibited | inhibited fibrosis | remarkably inhibited inflammation | significantly inhibited | 10.1 | 81.8 | 3.3 | 4.9 | 0.04 | 0.32 | 0.01 | 0.02 | 0.39 ×10^2 cells/μL | significantly inhibited | significantly inhibited | remarkably increased clinical grades |
| CC(=O)N[C@@H](Cc1c[nH]c2ccccc12)C(=O)O [NAT, N-acetyl-L-tryptophan] | remarkably decreased | remarkably decreased | significantly inhibited | inhibited fibrosis | remarkably inhibited inflammation | significantly inhibited | 20.1 | 71.8 | 3.9 | 4.1 | 0.10 | 0.33 | 0.02 | 0.02 | 0.47 ×10^2 cells/μL | significantly inhibited | significantly inhibited | remarkably increased clinical grades |
| CCCCCCCC/C=C\CCCCCCCC(=O)N[C@@H](C)C(=O)O [NOA, N-oleoyl-L-alanine] | remarkably decreased | remarkably decreased | significantly inhibited | inhibited fibrosis; also recorded: highest inhibition | remarkably inhibited inflammation; also recorded: highest inhibition of inflammation | significantly inhibited | 3.4 | 87.3 | 3.8 | 5.5 | 0.01 | 0.34 | 0.01 | 0.02 | 0.38 ×10^2 cells/μL | significantly inhibited | significantly inhibited | remarkably increased clinical grades |
| CCCCCCCC/C=C\CCCCCCCC(=O)N[C@@H](Cc1c[nH]c2ccccc12)C(=O)O [NOT, N-oleoyl-L-tryptophan] | remarkably decreased | remarkably decreased | significantly inhibited | inhibited fibrosis | remarkably inhibited inflammation | significantly inhibited | 17.0 | 74.3 | 3.6 | 5.1 | 0.07 | 0.32 | 0.01 | 0.02 | 0.43 ×10^2 cells/μL | significantly inhibited | significantly inhibited | remarkably increased clinical grades |
